In PubChem BioAssay AID2060612 (Molecular Pharmacology Branch, DTP, NCI, 2025) one finds viability, T/C and IC50 data, which are given here for 8 compounds.

The term viability, T/C denotes the result in the treated group divided by that in the control group, in per cent. As a reminder, the IC50 is the concentration that inhibits the measured activity by half.

Several values for one entry are separate records, joined by “and”; a condition that tells them apart may be missing. Equal values may be shown once.

The assay deals with 565232-114-T-J1-PDC complex spheroid viability. As to the kind of experiment: Anticancer human tumor 565232-114-T-J1-PDC patient-derived bladder carcinoma cell line growth inhibition [CLK]. To be noted: for viability, T/C: stronger effect = lower value; for IC50: curve of compound. The source says:
A high-throughput screen of multi-cell type tumor spheroids was designed to identify active combinations of […] and targeted small molecules. Complex spheroids include a stromal component modeled by human endothelial cells (HUVEC) and fibroblasts modeled by human mesenchymal stem cells (MSCs). The concentration ranges selected for each drug and investigational agent were based upon clinically achievable concentrations if the clinical Cmax of the agent was known.
Compounds. The drugs and investigational agents: cirtuvivint (SM08502; NSC835563), CC-671 (NSC850746), vemurafenib (NSC761431), tapotoclax (NSC804041), sotorasib (NSC818433), adagrasib (NSC831453), MRTX-1133 (NSC836407), BAY2416964 (NSC825713), copanlisib (NSC816437), inavolisib (NSC800729), abemaciclib (NSC768073), osimertinib (NSC779217), entinostat (NSC756642), eltanexor (KPT-8602, NSC794443), venetoclax (NSC766270), ceralasertib (NSC777638), bortezomib (NSC756655), olaparib (NSC753686), talazoparib (NSC767125), alisertib (NSC759677), peposertib (NSC802822), gemcitabine (NSC613327), 5-fluorouracil (NSC19893), SN-38 (NSC673596), oxaliplatin (NSC266046), paclitaxel (NSC125973), and doxorubicin (NSC123127), were obtained from the National Cancer Institute (NCI) Developmental Therapeutics Program Chemical Repository. The FDA-approved anticancer drug set is available from the Developmental Therapeutics Program at https://dtp.cancer.gov/organization/dscb/obtaining/available plates.htm. […] The stock solutions were prepared in dimethyl sulfoxide (DMSO, Sigma-Aldrich, St. Louis, MO, cat. D2650), except for the platinum complexes which were prepared in saline (Quality Biological, Gaithersburg, MD, cat. 114-055-101), at 800-fold the tested concentration and stored at -70 degrees C prior to their use. All drugs and investigational agents were tested over a range starting from a high concentration at or near the clinical Cmax and decreasing in half-log increments. If the clinical Cmax for an agent had not been determined, the highest concentration tested was 10 microM.
Cell Culture. All cells were maintained in an incubator at 37 degrees C and 5% CO2 with 95% humidity. The PDC lines were cultured according to standard operating procedures established by the NCI PDMR. Briefly, all PDCs were thawed and cultured in Matrigel-coated flasks prepared with a working solution of 1X Ham's F-12 nutrient mix, without supplementation (Invitrogen, Waltham, MA, cat. 11765054), 100 U/mL penicillin-streptomycin (Invitrogen, cat. 15140122), and 2.5% Matrigel (Corning Inc., Corning, NY, cat. 354248) for the first three passages. The 947758-054-R-J2-PDC line was cultured in 6B/Colon 1A media, which includes advanced DMEM/F-12 (Thermo Fisher Scientific, cat. 12634028), 10 mM HEPES (Thermo Fisher Scientific, cat. 15630080), 1X GlutaMAX supplement (Thermo Fisher Scientific, cat. 35050061), 0.1 mg/mL primocin (InvivoGen, cat. ant-pm-2), 10% defined fetal bovine serum, heat inactivated (HyClone Laboratories Inc., cat. SH30070.03HI), 1.25 mM N-Acetyl-L-cysteine (Sigma-Aldrich, cat. A9165), 10 mM nicotinamide (Sigma-Aldrich, cat. N0636), 1X B-27 supplement (Thermo Fisher Scientific, cat. 17504044), 1X N-2 supplement (Thermo Fisher Scientific, cat. 17502048), and 10 microM Y-27632 dihydrochloride (Tocris Bioscience, cat. 1254). The 876862-298-R-J1-PDC was cultured in 6E media, which includes all 6B/Colon 1A media components plus 50% L-WRN conditioned media (ATCC, cat. CRL-3276), 50 ng/mL recombinant human EGF recombinant protein (hEGF; Thermo Fisher Scientific, cat. PHG0311), 10 ng/mL recombinant human fibroblast growth factor 10 (hGFG-10; PeproTech, cat. 100-26), 1 ng/mL recombinant human fibroblast growth factor 2 (hFGF-2; PeproTech, cat. 100-18B), and 1 µM prostaglandin E2 (PGE2; Tocris, cat. 2296). The 227483-062-R1-J1-PDC line was cultured in Panc media, containing all 6E components except hFGF-2, with the addition of 500 nM SB-431542 (Selleckchem, cat. S1067) and 10 nM gastrin (Tocris, cat. 3006). […]
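Further: spheroids exposed to compounds for 7 days before readout.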
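Wherever viability, T/C is given: 100% = DMSO vehicle wells with luminescence normalized to vehicle control.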

As to `C#Cc1c(F)ccc2cc(O)cc(-c3ncc4c(N5CC6CCC(C5)N6)nc(OCC56CCCN5CC(F)C6)nc4c3F)c12` (stereo unspecified), the IC50 was above 10 µM. Besides, the viability, T/C (compound 0.0316 µM) is 106% and 77.8%. The viability, T/C (compound 0.1 µM) was 92.2% and 83.3%. For the same compound, the viability, T/C (compound 0.316 µM) is 103% and 102%. In addition, for the setting “compound 1 µM”, the viability, T/C was 93.2% and 110%. For the same compound, under “compound 3.16 µM”, the viability, T/C is 98.7% and 94.8%. The viability, T/C (compound 10 µM) is 93% and 95.2%.
Regarding `C=C(F)C(=O)N1CCN(c2nc(OCC3CCCN3C)nc3c2CCN(c2cccc4cccc(Cl)c24)C3)CC1CC#N` (stereo unspecified), the concentration for half-maximal inhibition (IC50) was 5.68 µM. The viability, T/C (compound 0.0316 µM) was 103%. Besides, the viability, T/C (compound 0.1 µM) was 103%. The viability, T/C (compound 0.316 µM) was 88.9%. Besides, the viability, T/C (compound 1 µM) was 109%. Further, the viability, T/C (compound 3.16 µM) is 105%. Also, the viability, T/C (compound 10 µM) was 0.24%.
Consider `C=CC(=O)N1CCN(c2nc(=O)n(-c3c(C)ccnc3C(C)C)c3nc(-c4c(O)cccc4F)c(F)cc23)C(C)C1` (stereo unspecified), for which the IC50 is above 10 µM. For the same compound, the viability, T/C (compound 0.0316 µM) was 122%. Besides, the viability, T/C (compound 0.1 µM) was 82.7%. Moreover, under “compound 0.316 µM”, the viability, T/C is 91.2%. Moreover, the viability, T/C (compound 1 µM) is 97%. Also, the viability, T/C (compound 3.16 µM) was 110%. Also, under “compound 10 µM”, the viability, T/C was 111%.
With `C=CC(=O)Nc1cc(Nc2nccc(-c3cn(C)c4ccccc34)n2)c(OC)cc1N(C)CCN(C)C`, the IC50 is above 0.3 µM. The viability, T/C (compound 0.000949 µM) was 93.7% and 95.9%. Moreover, the viability, T/C (compound 0.003 µM) was 76% and 82.3%. Besides, the viability, T/C (compound 0.00949 µM) is 101% and 91.3%. Further, the viability, T/C (compound 0.03 µM) is 104% and 89.6%. In addition, for the setting “compound 0.0949 µM”, the viability, T/C is 87.5% and 109%. The viability, T/C (compound 0.3 µM) is 112% and 110%.
Regarding `CC(C)CC(NC(=O)C(Cc1ccccc1)NC(=O)c1cnccn1)B(O)O` (stereo unspecified), the IC50 was 0.00516 µM and 0.00503 µM. In addition, the viability, T/C (compound 0.000949 µM) was 97.2% and 89.6%. The viability, T/C (compound 0.003 µM) was 85.3% and 89.2%. Where the note is “compound 0.00949 µM”, the viability, T/C is 10.3% and 1.88%. Further, the viability, T/C (compound 0.03 µM) is 4.99% and 0.69%. In addition, under “compound 0.0949 µM”, the viability, T/C is 2.74% and 2.59%. For the same compound, the viability, T/C (compound 0.3 µM) was 1.61% and 0.54%.
Take `CC(CO)NC(=O)c1cc(-c2ccc(Cl)cc2)nn(-c2cnn(C)c2)c1=O` (stereo unspecified): the IC50 is above 10 µM. Moreover, where the note is “compound 0.0316 µM”, the viability, T/C was 97.3% and 115%. In addition, the viability, T/C (compound 0.1 µM) is 85.3% and 77.5%. The viability, T/C (compound 0.316 µM) is 83.9% and 109%. Moreover, the viability, T/C (compound 1 µM) was 90.8% and 89.4%. The viability, T/C (compound 3.16 µM) is 94.1% and 97.8%. For the setting “compound 10 µM”, the viability, T/C was 90.5% and 91.3%.
Consider `CC(Nc1ccc2c(c1)OCCn1cc(N3C(=O)OCC3C(F)F)nc1-2)C(N)=O` (stereo unspecified), for which the IC50 was above 10 µM. Besides, the viability, T/C (compound 0.0316 µM) was 99.5%. Also, the viability, T/C (compound 0.1 µM) is 83.6%. The viability, T/C (compound 0.316 µM) is 92.9%. Besides, the viability, T/C (compound 1 µM) was 98.5%. Further, the viability, T/C (compound 3.16 µM) was 92.8%. Further, under “compound 10 µM”, the viability, T/C is 102%.
`CC1(C)CCC(CN2CCN(c3ccc(C(=O)NS(=O)(=O)c4ccc(NCC5CCOCC5)c([N+](=O)[O-])c4)c(Oc4cnc5[nH]ccc5c4)c3)CC2)=C(c2ccc(Cl)cc2)C1`: the IC50 is 7.08 µM and 9.11 µM. Further, the viability, T/C (compound 0.0316 µM) was 83.5% and 111%. The viability, T/C (compound 0.1 µM) is 86.5% and 97.6%. The viability, T/C (compound 0.316 µM) is 80.5% and 95.8%. Also, the viability, T/C (compound 1 µM) is 72.6% and 95.6%. Further, the viability, T/C (compound 3.16 µM) is 78.2% and 100%. Moreover, for the setting “compound 10 µM”, the viability, T/C is 38.4% and 45.6%.
